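1) Cells in 96-well plates. 2) Compound, 48 h, 5 concentrations. 3) Linear interpolation between surrounding doses. 4) Unreached endpoint = highest concentration. GI50: concentration for 50% inhibition of growth.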 The source made the active and inactive calls. Rule as the data show it: active = GI50 up to about 1.1 µM and inactive = higher.
Columns and labels:
Test in all cases: NCI-60 cell line screen, 48 h
CCRF-CEM = system: CCRF-CEM
LOX IMVI = system: LOX IMVI
SR = system: SR
SF-295 = system: SF-295
HCC 2998 = system: HCC 2998
SNB-19 = system: SNB-19
M14 = system: M14
SF-539 = system: SF-539
SK-MEL-5 = system: SK-MEL-5
TK-10 = system: TK-10
SK-MEL-2 = system: SK-MEL-2
786-0 = system: 786-0
EKVX = system: EKVX
RPMI-8226 = system: RPMI-8226
SW-620 = system: SW-620
NCI/ADR-RES = system: NCI/ADR-RES
NCI-H460 = system: NCI-H460
NCI-H522 = system: NCI-H522
OVCAR-8 = system: OVCAR-8
UACC-257 = system: UACC-257

Row | Compound | GI50 (CCRF-CEM) | GI50 (LOX IMVI) | GI50 (SR) | GI50 (SF-295) | GI50 (HCC 2998) | GI50 (SNB-19) | GI50 (M14) | GI50 (SF-539) | GI50 (SK-MEL-5) | GI50 (TK-10) | GI50 (SK-MEL-2) | GI50 (786-0) | GI50 (EKVX) | GI50 (RPMI-8226) | GI50 (SW-620) | GI50 (NCI/ADR-RES) | GI50 (NCI-H460) | GI50 (NCI-H522) | GI50 (OVCAR-8) | GI50 (UACC-257)
1 | C=C1C(=O)OC2CC(C)C(/C=C/C(C)=O)=CCC12 (stereo not given) | 40 µM (inactive) | > 100 µM (inactive) | 57.9 µM (inactive) | > 100 µM (inactive) | > 100 µM (inactive) | > 100 µM (inactive) | > 100 µM (inactive) | > 100 µM (inactive) | 71.8 µM (inactive) | > 100 µM (inactive) | > 100 µM (inactive) | 26.4 µM (inactive) | > 100 µM (inactive) | 86.1 µM (inactive) | 61.8 µM (inactive) | > 100 µM (inactive) | > 100 µM (inactive) | 29.8 µM (inactive) | > 100 µM (inactive) | > 100 µM (inactive)
2 | Cc1ccc2nc(/C=N/c3ccc(Cl)cc3)cc(C)c2c1 | 1.06 µM (active) | 0.329 µM (active) | 1.88 µM (inactive) | 0.798 µM (active) | 0.574 µM (active) | 27.6 µM (inactive) | 0.212 µM (active) | 2.12 µM (inactive) | 2.29 µM (inactive) | 2.9 µM (inactive) | 25.8 µM (inactive) | 10.6 µM (inactive) | 14.4 µM (inactive) | 1.24 µM (inactive) | 2.07 µM (inactive) | 3.44 µM (inactive) | 0.729 µM (active) | 2.65 µM (inactive) | 10.3 µM (inactive) | 4.38 µM (inactive)
3 | Cc1cc2c(cc1C)C(=O)C1(C2)Cc2c(ccc(C)c2C)C1=O (stereo not given) | > 100 µM (inactive) | > 100 µM (inactive) | > 100 µM (inactive) | > 100 µM (inactive) | > 100 µM (inactive) | > 100 µM (inactive) | > 100 µM (inactive) | 36.6 µM (inactive) | > 100 µM (inactive) | > 100 µM (inactive) | > 100 µM (inactive) | 89.1 µM (inactive) | > 100 µM (inactive) | > 100 µM (inactive) | > 100 µM (inactive) | > 100 µM (inactive) | > 100 µM (inactive) | > 100 µM (inactive) | 72.8 µM (inactive) | > 100 µM (inactive)
4 | COc1cc2c(c(OC3OC(CO)C(O)C(O)C3O)c1)C(=O)CC(c1ccc(O)cc1)O2 (stereo not given) | > 10 µM (inactive) | > 100 µM (inactive) | > 100 µM (inactive) | > 100 µM (inactive) | > 100 µM (inactive) | > 100 µM (inactive) | > 100 µM (inactive) | > 100 µM (inactive) | > 100 µM (inactive) | > 100 µM (inactive) | > 100 µM (inactive) | > 100 µM (inactive) | > 100 µM (inactive) | > 100 µM (inactive) | > 100 µM (inactive) | > 100 µM (inactive) | > 100 µM (inactive) | > 100 µM (inactive) | > 100 µM (inactive) | > 100 µM (inactive)
5 | CC1(C)C2CC(=O)C1(C)C(OCc1ccccc1)C2 (stereo not given) | 26.1 µM (inactive) | 22.1 µM (inactive) | 25.1 µM (inactive) | 68.7 µM (inactive) | 59.8 µM (inactive) | 88.3 µM (inactive) | 24.8 µM (inactive) | > 100 µM (inactive) | 26.3 µM (inactive) | 23.4 µM (inactive) | > 100 µM (inactive) | 70 µM (inactive) | > 100 µM (inactive) | 27.7 µM (inactive) | 29.6 µM (inactive) | 28.6 µM (inactive) | 33.3 µM (inactive) | 22.2 µM (inactive) | > 100 µM (inactive) | 74 µM (inactive)
6 | OC(CCN1CCN(CCOC(c2ccc(F)cc2)c2ccc(F)cc2)CC1)c1ccccc1 (stereo not given) | 19 µM (inactive) | 14.6 µM (inactive) | 5.48 µM (inactive) | 18.3 µM (inactive) | 3.52 µM (inactive) | 16.9 µM (inactive) | 14.7 µM (inactive) | 11.1 µM (inactive) | 7.6 µM (inactive) | 15 µM (inactive) | 15.3 µM (inactive) | 12.9 µM (inactive) | 12.9 µM (inactive) | 15.7 µM (inactive) | 22.8 µM (inactive) | 13.3 µM (inactive) | 16.7 µM (inactive) | 14.4 µM (inactive) | 12.9 µM (inactive) | 16.2 µM (inactive)
7 | CCOC(=O)/C=C(/C(=O)OCC)n1cc(C)c(=O)[nH]c1=O | 1.37 µM (inactive) | 2.19 µM (inactive) | 1.92 µM (inactive) | 17.3 µM (inactive) | 5.71 µM (inactive) | 17.3 µM (inactive) | 1.95 µM (inactive) | 13.2 µM (inactive) | 8.81 µM (inactive) | 2.52 µM (inactive) | 7 µM (inactive) | 2.49 µM (inactive) | 3.33 µM (inactive) | 2.47 µM (inactive) | 2.01 µM (inactive) | 10.9 µM (inactive) | 14.6 µM (inactive) | 0.792 µM (active) | 4.62 µM (inactive) | 12.9 µM (inactive)
8 | CC1=NN(c2ccccc2)C(=O)C1C(=O)C(=O)Nc1ccc(C)cc1C (stereo not given) | > 100 µM (inactive) | > 100 µM (inactive) | > 100 µM (inactive) | > 100 µM (inactive) | > 100 µM (inactive) | > 100 µM (inactive) | > 100 µM (inactive) | > 100 µM (inactive) | > 100 µM (inactive) | > 100 µM (inactive) | > 100 µM (inactive) | > 100 µM (inactive) | > 100 µM (inactive) | > 100 µM (inactive) | > 100 µM (inactive) | > 100 µM (inactive) | > 100 µM (inactive) | > 100 µM (inactive) | > 100 µM (inactive) | > 100 µM (inactive)
9 | Cc1cc(C)c2c(O)cc(-c3ccc4ccccc4c3)nc2n1 | 11.6 µM (inactive) | 17.9 µM (inactive) | 5.98 µM (inactive) | 16.2 µM (inactive) | 16.3 µM (inactive) | 30.9 µM (inactive) | 17.3 µM (inactive) | 30.8 µM (inactive) | 2.7 µM (inactive) | 31 µM (inactive) | 13.6 µM (inactive) | 39.8 µM (inactive) | 29.5 µM (inactive) | 6.31 µM (inactive) | 15.2 µM (inactive) | 17.1 µM (inactive) | 9.84 µM (inactive) | 21.4 µM (inactive) | 39 µM (inactive) | 21.2 µM (inactive)
10 | O=C(Nc1ccn(C2CCC(COC(c3ccccc3)(c3ccccc3)c3ccccc3)O2)c(=O)n1)c1ccccc1 (stereo not given) | 3.28 µM (inactive) | 2.72 µM (inactive) | 2.34 µM (inactive) | 3.11 µM (inactive) | 11.5 µM (inactive) | 5.66 µM (inactive) | 3.48 µM (inactive) | 3.43 µM (inactive) | 2.78 µM (inactive) | 5.12 µM (inactive) | 2.48 µM (inactive) | 2.64 µM (inactive) | 5.11 µM (inactive) | 2.31 µM (inactive) | 4.94 µM (inactive) | 2.72 µM (inactive) | 2.92 µM (inactive) | 5.32 µM (inactive) | 4.82 µM (inactive) | 6.81 µM (inactive)
11 | CCCCCNC(=O)c1cc2cc(CCl)ccc2oc1=O | > 100 µM (inactive) | 17.3 µM (inactive) | 5.38 µM (inactive) | 6.56 µM (inactive) | 1.77 µM (inactive) | 15.9 µM (inactive) | 9.12 µM (inactive) | 2.67 µM (inactive) | 16.6 µM (inactive) | 1.52 µM (inactive) | 3.1 µM (inactive) | 1.34 µM (inactive) | 4.41 µM (inactive) | 10 µM (inactive) | > 49.7 µM (inactive) | 16.4 µM (inactive) | 1.61 µM (inactive) | 3.24 µM (inactive) | 35.7 µM (inactive) | 2.04 µM (inactive)
12 | COc1ccc2[nH]c(Cl)c(/C=C3/C(=O)N(c4ccccc4)c4ccccc43)c2c1 | 2.96 µM (inactive) | 3.29 µM (inactive) | 2.65 µM (inactive) | 2.48 µM (inactive) | 4.24 µM (inactive) | 9.46 µM (inactive) | 3.66 µM (inactive) | 3.03 µM (inactive) | 2.28 µM (inactive) | 10.8 µM (inactive) | 2.92 µM (inactive) | 6.37 µM (inactive) | 7.08 µM (inactive) | 2.82 µM (inactive) | 3.78 µM (inactive) | 2.1 µM (inactive) | 3.55 µM (inactive) | 3.25 µM (inactive) | 6.44 µM (inactive) | 7.13 µM (inactive)

Reference: ChEMBL document CHEMBL1201862, “PubChem BioAssay data set” (2004)
